Data as given in patent US20250051355A1, “COMPOUNDS, COMPOSITIONS, AND METHODS” (ACONCAGUA BIO, INC., priority 2023, published 2025).
pEC50: −log10 of the molar value.

Experiments:
[1] = target: human calcitonin receptor (CTR) and RAMP3 (AMY3) (Homo sapiens, UniProt O60896+P30988); experiment: Amylin Receptor cAMP Assay II; format: cell-based; conditions: COS-7/AMY3 cells, cAMP dynamic 2 kit, read-out: Amylin Receptor cAMP Stimulation Activity: EC50
Text: Amylin Receptor cAMPAssay II
AMYRs are heterodimers of the class B calcitonin (CT) G-protein-coupled receptor (CTR) and receptor activity-modifying proteins (RAMPs). All three RAMPs can interact with the CTR and form AMY1, AMY2, AMY3 with RAMP1, RAMP2 and RAMP3, respectively. Like other class B1 GPCRs, the CT receptor family is canonically coupled to Gs-mediated cAMP production, and measurement of cAMP accumulation has been the primary assay used to determine peptide selectivity and potency.
(§1) To optimize functional activity directed toward Gas coupling, COS-7 cells were stably transfected with human calcitonin receptor (CTR) and RAMP3, simultaneously. 100×concentration of compound working solutions were prepared with 4-fold serial dilution in 384-well Echo LDV plate (Labcyte, Cat #LP-0200-BC). 200 nL/well 100×concentration of compound working solutions were moved to 384-well white microplate (Perkin Elmer, Cat #6007680) using Labcyte ECHO550. […] cells/mL COS-7/AMY3 cell suspensions prepared with assay buffer [HBSS containing 20 mM HEPES (Gibco, Cat #15630-080), 0.5 mM IBMX (Sigma, Cat #15879) and 0.1% Casein (Sigma, Cat #C4765)], 20 μL cell suspensions were added to each well of previous generated assay plate which already contains 200 nL compound at 100×concentration using ThermoFisher Multidrop Combi (2000 cells/well). Seal the plate and incubate at 37° C. with 5% CO2 for 30 min.
(§2) After incubation, the cAMP assay signal was generated using cAMP dynamic 2 kit (Revvity, Cat #62AM4PEC). 10 μL cAMP-d2 working solution was added to each well, followed by 10 μL Anti-cAMP antibody-cryptate working solution which was added to each well using CERTUS FLEX LIQUID DISPENSER The samples were then incubated at room temperature for 1 hour protected from light. the fluorescence was read at 665 and 615 nm with Reader PerkinElmer EnVision 2105.

[2] = target: T1, human calcitonin receptor (CTR) (Homo sapiens, UniProt P30988); experiment: Calcitonin receptor (CTR) cAMP Assay; format: cell-based; conditions: COS7-human CTR Clone #2 cells, cAMP dynamic 2 kit; read-out: Calcitonin Receptor cAMP Stimulation Activity: EC50
T1 construct: expressed in transfected cells; host or cells: COS-7 (COS7-human CTR Clone #2)
T1 sequence (P30988 25-474): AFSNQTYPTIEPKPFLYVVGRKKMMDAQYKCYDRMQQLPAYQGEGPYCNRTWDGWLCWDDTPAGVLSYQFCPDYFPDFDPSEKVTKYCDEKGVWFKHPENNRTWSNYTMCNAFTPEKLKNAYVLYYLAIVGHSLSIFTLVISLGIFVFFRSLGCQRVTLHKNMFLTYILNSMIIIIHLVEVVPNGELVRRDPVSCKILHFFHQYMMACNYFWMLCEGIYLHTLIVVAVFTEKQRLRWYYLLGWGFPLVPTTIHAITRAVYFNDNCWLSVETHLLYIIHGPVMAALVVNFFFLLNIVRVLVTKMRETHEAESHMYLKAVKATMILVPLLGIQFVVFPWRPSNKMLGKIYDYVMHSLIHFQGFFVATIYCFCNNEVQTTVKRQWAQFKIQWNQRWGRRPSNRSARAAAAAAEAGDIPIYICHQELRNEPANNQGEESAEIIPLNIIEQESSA
Text: Calcitonin receptor (CTR) cAMPAssay
The calcitonin receptor (CTR) belongs to the subfamily of GPCRs known as the secretin or ‘B’ family of GPCRs. Like other class B1 GPCRs, the CT receptor family is canonically coupled to Gs-mediated cAMP production, and measurement of cAMP accumulation has been the primary assay used to determine peptide selectivity and potency.
as §1, with “to create COS7-human CTR Clone #2 stable cell line. 100× concentration” for “and RAMP3, simultaneously. 100×concentration”, “COS7-human CTR Clone #2” for “COS-7/AMY3”
as §2, with “#62AM4PEC). […] cAMP-d2 working” for “#62AM4PEC). 10 μL cAMP-d2 working”

Chain of human calcitonin receptor (CTR) and RAMP3 (AMY3) (O60896 24-148, one chain of several): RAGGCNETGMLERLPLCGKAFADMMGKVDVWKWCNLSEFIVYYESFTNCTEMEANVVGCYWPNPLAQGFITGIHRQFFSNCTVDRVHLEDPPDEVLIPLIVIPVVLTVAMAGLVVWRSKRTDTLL

Row | Structure (SMILES) | pEC50 [1] | pEC50 [2]
1 | Cc1nnc(-c2c(CCC3CCOCC3)nc3c(c2-c2ccc4c(c2)oc(=O)n4Cc2ccc(C#N)cn2)C(=O)N2CCC[C@@H]32)o1 [Compound 125, 6-[(6-((2S)-10-(5-methyl-1,3,4-oxadiazol-2-yl)-7-oxo-11-[2-(tetrahydro-2H-pyran-4-yl)ethyl]-6,12-diazatricyclo[6.4.0.0^2,6,]dodeca-1(12),8,10-trien-9-yl}-2-oxo-1,3-benzoxazol-3-yl)methyl]nicotinonitrile] | 6.76 | 8.18
2 | Cc1nnc(-c2c(CCC3CCOCC3)nc3c(c2-c2cc4ncnc(N[C@@H]5CCc6ncccc65)c4s2)S(=O)(=O)CC3C2CC2)o1 (stereo partly drawn) [Compound 103, N—(R)-4-aza-1-indanyl(2-(3-cyclopropyl-6-(5-methyl-1,3,4-oxadiazol-2-yl)-1,1-dioxo-5-[2-(tetrahydro-2H-pyran-4-yl)ethyl]-1λ^6-thia-4-aza-7-indanyl}-1-thia-4,6-diaza-7-indenyl)amine] | 5.92 | 7.34
3 | Cc1cnc(-c2c(CCC34CCC(CC3)OC4)nc3c(c2-c2ccc4c(c2)OCC(=O)N4Cc2ncc(Cl)cc2F)c(=O)n2n3CCC2)o1 [Compound 156] | 7.26 | 8.83
4 | Cc1nnc(-c2c(CCC3CCOCC3)nc3c(c2C2CCN(C(=O)Cc4ccc(F)c(F)c4)CC2)S(=O)(=O)CC3C(C)C)o1 (stereo not shown) [Compound 106, 7-{1-[2-(3,4-difluorophenyl)acetyl]-4-piperidyl}-3-isopropyl-6-(5-methyl-1,3,4-oadiazol-2-yl)-5-[2-(tetrahydro-2H-pyran-4-yl)ethyl]-1λ^6-thia-4-aza-1,1-indandione] | < 7.00 | 5.49
5 | Cc1nnc(-c2c(CCC34CCC(CC3)OC4)nc3c(c2-c2cc4ccnc(N[C@@H]5CCc6ncccc65)c4s2)S(=O)(=O)CC3C(C)C)o1 (stereo partly drawn) [Compound 116, N—(R)-4-aza-1-indanyl(2-[3-isopropyl-6-(5-methyl-1,3,4-oxadiazol-2-yl)-5-(2-(2-oxabicyclo[2.2.2]oct-4-yl)ethyl}-1,1-dioxo-1λ^6-thia-4-aza-7-indanyl]-1-thia-6-aza-7-indenyl}amine] | 6.67 | 8.30
6 | Cc1nnc(-c2c(CCC3CCOC(C)(C)C3)nc3c(c2-c2ccc4c(c2)oc(=O)n4Cc2ccc(C#N)c(F)c2)C(=O)N2CCOC[C@@H]32)o1 (stereo partly drawn) [Compound 112, 4-[(6-((4aR,9aR)-6-[2-(2,2-dimethyltetrahydro-2H-pyran-4-yl)ethyl]-7-(5-methyl-1,3,4-oxadiazol-2-yl)-9-oxo-1,2,4,4a-tetrahydro-9H-3-oxa-5,9a-diazafluoren-8-yl}-2-oxo-1,3-benzoxazol-3-yl)methyl]-2-fluorobenzonitrile] | 6.91 | 8.28
7 | Cc1cnc(-c2c(CCC3CCOCC3)nc3c(c2-c2ccc4c(c2)oc(=O)n4Cc2ccc(C#N)c(F)c2)c(=O)n2n3CCC2)o1 [Compound 152, 2-fluoro-4-[(6-(10-(5-methyl-1,3-oxazol-2-yl)-7-oxo-11-[2-(tetrahydro-2H-pyran-4-yl)ethyl]-2,6,12-triazatricyclo[6.4.0.0^2,6]dodeca-1(12),8,10-trien-9-yl}-2-oxo-1,3-benzoxazol-3-yl)methyl]benzonitrile] | 7.40 | 8.14
8 | Cc1nnc(-c2c(CCc3ccc(F)cc3)nc3c(c2-c2cnc4c(ccn4Cc4ccc(C#N)c(F)c4)c2)c(=O)n2n3CCC2)o1 [Compound 141, 2-fluoro-4-[(5-(11-[2-(p-fluorophenyl)ethyl]-10-(5-methyl-1,3,4-oxadiazol-2-yl)-7-oxo-2,6,12-triazatricyclo[6.4.0.0]dodeca-1(12),8,10-trien-9-yl}-1H-1,7-diazainden-1-yl)methyl]benzonitrile] | 7.13 | 8.35
9 | Cc1nnc(-c2c(CCC3CCOCC3)nc3c(c2-c2ccc4c(c2)oc(=O)n4Cc2ccc(C#N)c(F)c2)C(=O)N2CCOCC32O)o1 (stereo not shown) [Compound 135, 4-[(6-(4a-hydroxy-7-(5-methyl-1,3,4-oxadiazol-2-yl)-9-oxo-6-[2-(tetrahydro-2H-pyran-4-yl)ethyl]-1,2,4,4a-tetrahydro-9H-3-oxa-5,9a-diazafluoren-8-yl}-2-oxo-1,3-benzoxazol-3-yl)methyl]-2-fluorobenzonitrile] | 6.78 | 8.27
10 | Cc1nnc(-c2c(CCC3CCOCC3)nc3c(c2-c2cc4ccnc(NCc5ccc(C#N)nc5)c4s2)S(=O)(=O)CC3C(C)C)o1 (stereo not shown) [Compound 131, 5-[(2-(3-isopropyl-6-(5-methyl-1,3,4-oxadiazol-2-yl)-1,1-dioxo-5-[2-(tetrahydro-2H-pyran-4-yl)ethyl]-1λ^6-thia-4-aza-7-indanyl}-1-thia-6-aza-7-indenylamino)methyl]-2-pyridinecarbonitrile] | 5.83 | 6.48
11 | Cc1nnc(-c2c(CCC3CCOCC3)nc3c(c2-c2ccc4c(ccn4C(C)c4ccc(C#N)c(F)c4)c2)C(=O)N2CCOC[C@@H]32)o1 (stereo partly drawn) [Compound 110, 4-[1-(5-((4aR)-7-(5-methyl-1,3,4-oxadiazol-2-yl)-9-oxo-6-[2-(tetrahydro-2H-pyran-4-yl)ethyl]-1,2,4,4a-tetrahydro-9H-3-oxa-5,9a-diazafluoren-8-yl}-1-indolyl)ethyl]-2-fluorobenzonitrile] | 7.20 | 8.21
12 | Cc1nnc(-c2c(CC3CCOCC3)nc3c(c2-c2cc4ccnc(N[C@@H]5CCc6ncccc65)c4s2)S(=O)(=O)CC3C(C)C)o1 (stereo partly drawn) [Compound 96, N—(R)-4-aza-1-indanyl(2-(3-isopropyl-6-(5-methyl-1,3,4-oxadiazol-2-yl)-1,1-dioxo-5-[(tetrahydro-2H-pyran-4-yl)methyl]-1λ^6-thia-4-aza-7-indanyl}-1-thia-6-aza-7-indenyl)amine] | 5.89 | 6.65
13 | Cc1nnc(-c2c(CCC34CCC(CC3)OC4)nc3c(c2-c2ccc4c(c2)oc(=O)n4Cc2ccc(C#N)cn2)c(=O)n2n3CCC2)o1 [Compound 144, 6-((6-[10-(5-methyl-1,3,4-oxadiazol-2-yl)-11-(2-(2-oxabicyclo[2.2.2]oct-4-yl)ethyl}-7-oxo-2,6,12-triazatricyclo[6.4.0.0^2,^6]dodeca-1(12),8,10-trien-9-yl]-2-oxo-1,3-benzoxazol-3-yl}methyl)nicotinonitrile] | 7.08 | 8.59
14 | Cc1nnc(-c2c(CCC3CCOCC3)nc3c(c2-c2cnc4c(ccn4Cc4ccc(C#N)cn4)c2)S(=O)(=O)CC3C(C)C)o1 (stereo not shown) [Compound 128, 6-[(5-(3-isopropyl-6-(5-methyl-1,3,4-oxadiazol-2-yl)-1,1-dioxo-5-[2-(tetrahydro-2H-pyran-4-yl)ethyl]-1-thia-4-aza-7-indanyl}-1H-1,7-diazainden-1-yl)methyl]nicotinonitrile] | 5.81 | 6.92
